Patent publication US10865191B2, “Heterocyclic compounds useful as modulators of TNF alpha” (BRISTOL-MYERS SQUIBB COMPANY, priority 2015, dated 2020)

Biological target: TNFα (Homo sapiens, UniProt P01375)
Assay: TNF induced HEK-Blue assay (NF-kB-driven secreted alkaline phosphatase reporter)
Format: cell-based
Settings: TNFα 0.5 ng/mL, HEK-Blue-CD40L cells, 18 h; read-out: TNF induced HEK-Blue assay IC50 value
In short: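 HEK-Blue-CD40L cells (NF-kB-driven SEAP reporter), 20,000/well, added after 30 min pre-incubation of compound (0.004–25 μM final) with TNFα 0.5 ng/mL final at 37 °C; 18 h incubation. SEAP read with QUANTI-Blue at 620 nm; IC50 from 4-parameter logistic fit, normalized to unstimulated and stimulated DMSO controls.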

Sequence of TNFα (P01375 77-233 limits assumed): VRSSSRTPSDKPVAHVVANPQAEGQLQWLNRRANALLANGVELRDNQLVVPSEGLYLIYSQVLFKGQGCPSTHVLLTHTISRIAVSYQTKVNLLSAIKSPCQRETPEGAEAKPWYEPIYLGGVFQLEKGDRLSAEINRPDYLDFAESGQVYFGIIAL

| Compound | IC50 [nM] |
| --- | --- |
| CC(Nc1c(Cl)cnc2cc(F)c(-c3ccc(C4COCCN4)cc3)cc12)c1ccccc1F (single isomer, unassigned) [Example 598, 3-chloro-7-fluoro-N-(1-(2-fluorophenyl)ethyl)-6-(4-(morpholin-3-yl)phenyl)quinolin-4-amine] | 1000 to 10000 |
| C[C@@H](Nc1c(Cl)cnc2ccccc12)c1cc(-c2cccnc2N)ccc1F [Example 512, (R)—N-(1-(5-(2-aminopyridin-3-yl)-2-fluorophenyl)ethyl)-3-chloroquinolin-4-amine] | 10000 to 25000 |
| CC(Nc1c(Cl)cnc2cc(F)c(-c3ccc(C(O)CO)cc3)cc12)c1cc(C(N)=O)ccc1F (single isomer, unassigned) [Example 601, 3-(1-((3-chloro-6-(4-(1,2-dihydroxyethyl)phenyl)-7-fluoroquinolin-4-yl)amino)ethyl)-4-fluorobenzamide] | < 1000 |
| CC(Nc1c(Cl)cnc2cc(F)c(-c3ccc(C(O)C4CC4)cc3)cc12)c1ccccc1F (stereo not shown) [Example 260, (4-(3-chloro-7-fluoro-4-((1-(2-fluorophenyl)ethyl)amino)quinolin-6-yl)phenyl)(cyclopropyl)methanol] | < 1000 |
| CC(Nc1c(Cl)cnc2cc(F)c(-c3ccc(C(O)C4CC4)cc3)cc12)c1ccccc1F (stereo not shown) [Example 262, (4-(3-chloro-7-fluoro-4-((1-(2-fluorophenyl)ethyl)amino)quinolin-6-yl)phenyl)(cyclopropyl)methanol] | 1000 to 10000 |
| C[C@@H](Nc1c(Cl)cnc2cc(F)c(-c3cnc(C4CCN(CC(=O)O)CC4)nc3)cc12)c1ccccc1F [Example 594, (R)-2-(4-(5-(3-chloro-7-fluoro-4-((1-(2-fluorophenyl)ethyl)amino)quinolin-6-yl)pyrimidin-2-yl)piperidin-1-yl)acetic acid] | < 1000 |
| Cc1ccc(C)c(Nc2c(F)c(C)nc3ccc(-c4cnc(N5CCN(CC(=O)O)CC5)nc4)cc23)c1 [Example 187, 2-(4-(5-(4-((2,5-dimethylphenyl)amino)-3-fluoro-2-methylquinolin-6-yl)pyrimidin-2-yl)piperazin-1-yl)acetic acid] | < 1000 |
| C[C@@H](Nc1c(Cl)cnc2ccc(-c3ccc(CNC(N)=O)cc3)cc12)c1ccccc1F [Example 569, (R)-1-(4-(3-chloro-4-((1-(2-fluorophenyl)ethyl)amino)quinolin-6-yl)benzyl)urea] | < 1000 |
| CC(Nc1c(Cl)cnc2cc(F)c(-c3cnc(C#N)nc3)cc12)c1ccccc1F (stereo not shown) [Example 255, 5-(3-chloro-7-fluoro-4-((1-(2-fluorophenyl)ethyl)amino)quinolin-6-yl)pyrimidine-2-carbonitrile] | 1000 to 10000 |
| Cc1ccc(C)c(Nc2c(Cl)c(CN=[N+]=[N-])nc3ccc(-c4ccc(C#N)nc4)cc23)c1 [Example 42, 5-(2-(azidomethyl)-3-chloro-4-((2,5-dimethylphenyl)amino)quinolin-6-yl)picolinonitrile] | 1000 to 10000 |
| COc1ccc(F)c([C@H](C)Nc2c(Cl)cnc3ccccc23)c1 [Example 476, (S)-3-chloro-N-(1-(2-fluoro-5-methoxyphenyl)ethyl)quinolin-4-amine] | 1000 to 10000 |
| C[C@@H](Nc1c(Cl)cnc2ccccc12)c1cc(-c2cncc(C(=O)N3CCOCC3)c2)ccc1F [Example 551, (R)-(5-(3-(1-((3-chloroquinolin-4-yl)amino)ethyl)-4-fluorophenyl)pyridin-3-yl)(morpholino)methanone] | 1000 to 10000 |
| C[C@@H](Nc1c(Cl)cnc2cnc(-c3cnc(N4CCN(CC(=O)O)CC4)nc3)cc12)c1ccccc1F (single isomer, unassigned) [Example 235] | 10000 to 25000 |
| C[C@@H](Nc1c(Cl)cnc2ccccc12)c1cc(-c2ccccc2N)ccc1F [Example 547, (R)—N-(1-(2′-amino-4-fluoro-[1,1′-biphenyl]-3-yl)ethyl)-3-chloroquinolin-4-amine] | 1000 to 10000 |
| CNS(=O)(=O)c1ccc(-c2cc(Cl)c3ncc(Cl)c(NC(C)c4ccccc4F)c3c2)cc1 (racemic) [Example 22, 4-(3,8-dichloro-4-((1-(2-fluorophenyl)ethyl)amino)quinolin-6-yl)-N-methylbenzenesulfonamide] | 10000 to 25000 |
| O=C(O)CNCc1ccc(-c2ccc3ncc(Cl)c(N[C@@H](c4ccccc4F)C(F)F)c3c2)cc1 [Example 13, (S)-(4-(3-chloro-4-((2,2-difluoro-1-(2-fluorophenyl)ethyl)amino)quinolin-6-yl)benzyl)glycine] | 10000 to 25000 |
| O=C(O)CC1CN(c2ncc(-c3ccc4ncc(Cl)c(N[C@@H](c5ccccc5F)C(F)F)c4c3)cn2)CCN1 (mixture of isomers) [Example 77, 2-(4-(5-(3-chloro-4-(((S)-2,2-difluoro-1-(2-fluorophenyl)ethyl)amino)quinolin-6-yl)pyrimidin-2-yl)piperazin-2-yl) acetic acid] | < 1000 |
| CC(Nc1c(Cl)cnc2cc(F)c(-c3cnc(C4(O)CCC(C(=O)O)CC4)nc3)cc12)c1ccccc1F (stereo not shown) [Example 295, 4-(5-(3-chloro-7-fluoro-4-((1-(2-fluorophenyl)ethyl)amino)quinolin-6-yl)pyrimidin-2-yl)-4-hydroxycyclohexane-1-carboxylic acid] | < 1000 |

Other lines, results leading:

| IC50 [nM] | Compound |
| --- | --- |
| < 1000 | COc1cncc(-c2ccc(F)c([C@@H](C)Nc3c(Cl)cnc4ccccc34)c2)c1 [Example 522, (R)-3-chloro-N-(1-(2-fluoro-5-(5-methoxypyridin-3-yl)phenyl)ethyl)quinolin-4-amine] |
| < 1000 | CC(C)(O)c1ncc(-c2ccc3ncc(Cl)c(NC4(c5ccccc5F)CC4)c3c2)cn1 [Example 158, 2-(5-(3-chloro-4-((1-(2-fluorophenyl)cyclopropyl)amino)quinolin-6-yl)pyrimidin-2-yl)propan-2-ol] |
| < 1000 | CC(Nc1c(Cl)cnc2cc(F)c(-c3cnc(C(C)(C)O)cn3)cc12)c1ccccc1F (single isomer, unassigned) [Example 595, 2-(5-(3-chloro-7-fluoro-4-((1-(2-fluorophenyl)ethyl)amino)quinolin-6-yl)pyrazin-2-yl)propan-2-ol] |
| < 1000 | CC(C)(O)c1ncc(-c2ccc3ncc(Cl)c(NC(CC(F)F)c4ccccc4F)c3c2)cn1 (racemic) [Example 168, 2-(5-(3-chloro-4-((3,3-difluoro-1-(2-fluorophenyl)propyl)amino)quinolin-6-yl)pyrimidin-2-yl)propan-2-ol] |
| 1000 to 10000 | C[C@@H](Nc1c(Cl)cnc2ccccc12)c1cc(-c2ccnnc2)ccc1F [Example 515, (R)-3-chloro-N-(1-(2-fluoro-5-(pyridazin-4-yl)phenyl)ethyl)quinolin-4-amine] |
| < 1000 | Cc1c(-c2ccc(F)c([C@@H](C)Nc3c(Cl)cnc4ccccc34)c2)cnn1C [Example 474, (R)-3-chloro-N-(1-(5-(1,5-dimethyl-1H-pyrazol-4-yl)-2-fluorophenyl)ethyl)quinolin-4-amine] |
| 10000 to 25000 | Cc1ccc(C)c(Nc2c(Cl)c(C)nc3ccc(-c4ccc(C(=O)O)nc4)cc23)c1 [Example 9, 5-(3-chloro-4-((2,5-dimethylphenyl)amino)-2-methylquinolin-6-yl)picolinic acid] |
| < 1000 | Cc1nc2cc(F)c(-c3cnc(C(C)(C)O)nc3)cc2c(N[C@H](C)c2cc(CCO)ccc2F)c1Cl [Example 325, (R)-2-(5-(3-chloro-7-fluoro-4-((1-(2-fluoro-5-(2-hydroxyethyl)phenyl)ethyl)amino)-2-methylquinolin-6-yl)pyrimidin-2-yl) propan-2-ol] |
| < 1000 | CC(Nc1c(Cl)c(N)nc2ccc(-c3cnc(N4CCN(CC(=O)O)CC4)nc3)cc12)c1ccccc1F (stereo not shown) [Example 46, 2-(4-(5-(2-amino-3-chloro-4-((1-(2-fluorophenyl)ethyl)amino)quinolin-6-yl)pyrimidin-2-yl)piperazin-1-yl) acetic acid] |
| 1000 to 10000 | C[C@@H](Nc1c(Cl)cnc2ccc(-c3cnc(C4CCN(CC(=O)O)CC4)nc3)cc12)c1ccccc1F [Example 593, (R)-2-(4-(5-(3-chloro-4-((1-(2-fluorophenyl)ethyl)amino)quinolin-6-yl)pyrimidin-2-yl)piperidin-1-yl)acetic acid] |
| < 1000 | Cc1nc2ccc(-c3cnc(C(C)(C)O)nc3)cc2c(N[C@H](C)c2cc(O)ccc2F)c1Cl [Example 404, (R)-3-(1-((3-chloro-6-(2-(2-hydroxypropan-2-yl)pyrimidin-5-yl)-2-methylquinolin-4-yl)amino)ethyl)-4-fluorophenol] |
| < 1000 | Cc1nc2ccc(-c3cnc(C(C)(C)O)nc3)cc2c(N[C@H](C)c2cccc(OCCO)c2)c1Cl [Example 437, (R)-2-(5-(3-chloro-4-((1-(3-(2-hydroxyethoxy)phenyl)ethyl)amino)-2-methylquinolin-6-yl)pyrimidin-2-yl)propan-2-ol] |
| < 1000 | C[C@@H](Nc1c(Cl)cnc2cccnc12)c1cc(-c2cncnc2)ccc1F [Example 555, (R)-3-chloro-N-(1-(2-fluoro-5-(pyrimidin-5-yl)phenyl)ethyl)-1,5-naphthyridin-4-amine] |
| < 1000 | CC(Nc1c(Cl)cnc2cc(F)c(-c3cnc(C(C)(O)CO)nc3)cc12)c1ccccc1F (stereo not shown) [Example 257, 2-(5-(3-chloro-7-fluoro-4-((1-(2-fluorophenyl)ethyl)amino)quinolin-6-yl)pyrimidin-2-yl)propane-1,2-diol] |
| < 1000 | CC(C)(O)c1ncc(-c2ccc3ncc(Cl)c(NC(c4ccccc4F)C(F)F)c3c2)cn1 (single isomer, unassigned) [Example 55a] |
| < 1000 | Cc1nc2ccc(-c3cnc(C(C)(C)O)nc3)cc2c(N[C@H](C)c2cc(CC(=O)O)ccc2F)c1Cl [Example 436, (R)-2-(3-(1-((3-chloro-6-(2-(2-hydroxypropan-2-yl)pyrimidin-5-yl)-2-methylquinolin-4-yl)amino)ethyl)-4-fluorophenyl)acetic acid] |
